One data set has as its system mice of strain CD 1. Description: acute toxicity, 50 percent lethal dose (LD50), graphical method. Particulars: mice CD 1, intraperitoneal; Table II. In kind it is in vivo. Here is the method:
(§1) The 50 percent lethal dose (LD50) of the compounds is determined for mice of strain CD 1 by a graphical method.
(§2) The results are indicated in Table II below, for a representative number of compounds.

The test system of a further data set is mice of the CD 1 strain. Briefly: anoxia due to pressure reduction, survival time, mean active dose (MAD). The data set is classed as in vivo, mice (CD 1 strain). Particulars: mice CD 1, intraperitoneal, 10 minutes before the experiment, 190 mm of mercury, Table II. Here is the method:
Mice of the CD 1 strain are kept in an atmosphere depleted in oxygen, by setting up a partial vacuum (190 mm. of mercury, corresponding to 5.25% of oxygen).
The survival time of the animals is noted. This time is increased by the agents capable of favouring oxygenation in the tissues and, in particular, in the brain. The compounds studied are administered intraperitoneally in several doses 10 minutes before the experiment. The percentage increases of the survival time relative to the values obtained with control animals are calculated. The mean active dose (MAD), namely the dose which increases the survival time by 100%, is determined graphically.
The results are indicated in Table II below for a representative number of compounds.

Data set [1] is described as follows: acute toxicity, 50 percent lethal dose (LD50), graphical method. Particulars: mouse, in vivo, ip, mice CD 1, intraperitoneal; Table II; read-out: ACUTE TOXICITY LD50 for intraperitoneal administration. In kind it is in vivo. Here is the method: as §1, §2
For data set [2], the system named is curarised rats ("sleep" induced by sodium 4-hydroxy-butyrate). Briefly: action on the duration of the "sleep" induced by sodium 4-hydroxy-butyrate (GHB) in curarised rats. Particulars: GHB 200 mg/kg i.v.; for TOTAL DURATION of the "sleep": over 75 minutes, comparison 54.12 ± 2.07. In kind it is in vivo, rats (male, Charles River strain). Here is the method: This action was determined from the influence of the compounds on the duration of the "sleep" induced by sodium 4-hydroxy-butyrate (GHB) in curarised rats.
The animals used are male rats of the Charles River strain, weighing 200±20 g. The animals, curarised by alloferin given intraperitoneally at the rate of 1 mg/kg, are placed under artificial respiration by means of a mask applied over the snout (respiration frequency: 40/minute; volume respired: 14 cc). The oesophagus is ligatured beforehand so as to avoid air entering the stomach.
Fronto-parietal and occipital cortical electrodes make it possible to record the electrocorticographic activity on a Grass model 79P polygraph at a speed of 6 mm/sec. The animals are prepared under local anaesthesia (2% xylocaine). The rats are kept at a constant temperature (37.5° C.) throughout the experiment. Ten minutes after the end of the preparation of the rat, a dose of 200 mg/kg of Na 4-hydroxybutyrate is injected intravenously into the tail. […]
The traces are evaluated for periods of 15 minutes over the course of 75 minutes after the injection of "GHB". During this period of analysis, the total duration of the "sleep" is determined. A series of 15 comparisons makes it possible precisely to define the duration of the "GHB sleep".
The statistical analysis of the results is carried out with the aid of the Mann-Whitney "U" test.

Data set [3] is described as follows: acute toxicity, 50 percent lethal dose (LD50), graphical method. Particulars: mouse, in vivo, iv; Table III; read-out: TOXICITY intravenous.

Structures are written as SMILES. Read-outs that look alike come from different tables or passages of the source.

These results are taken from patent US4190657A, “Naphthyridine derivatives” (Synthelabo, priority 1976, dated 1980).

`CN1CCc2c3n(c4ccccc24)C(=O)CCC31` (stereo not drawn) [2 (m.s.), 1,2,3,3a,4,5-Hexahydro-3-methyl-6H-indolo[3,2,1-de][1,5]naphthyridin-6-one]: in the data set on mice of strain CD 1, the “ACUTE TOXICITY LD50 for intraperitoneal administration” value is reported as 52 mg/kg. In the data set with mice of the CD 1 strain, the “ANOXIA DUE TO PRESSURE REDUCTION, mean active dose (MAD), dose which increases the survival time by 100%” value is given as 4.5.
As to `O=C1CCC2NCCc3c2n1c1ccc(Cl)cc31` (stereo not drawn) [Compound 52], the results for the LD50 in data set [1] and in data set [3] were 165 mg/kg and 110 mg/kg, respectively. The “TOTAL DURATION of the "sleep"” value in data set [2] (10 mg/kg intraperitoneally) amounted to 37.34 ± 3.35 minutes. seconds; in data set [2] (30 mg/kg intraperitoneally), 32.35 ± 5.02 minutes. seconds. Besides, the change in vivo at 10 mg/kg in data set [2] (Rattus norvegicus, ip, 1.25 h, 10 mg/kg intraperitoneally, read-out: DIFFERENCE IN % RELATIVE TO THE CONTROLS (total duration of the "sleep")) is -31%. Also, in data set [2] (Rattus norvegicus, ip, 1.25 h, 30 mg/kg intraperitoneally, read-out: DIFFERENCE IN % RELATIVE TO THE CONTROLS (total duration of the "sleep")), the change in vivo at 30 mg/kg is -40%. Moreover, in the data set with mice of the CD 1 strain (Mus musculus, ip, read-out: ANOXIA DUE TO PRESSURE REDUCTION, mean active dose (MAD), dose which increases the survival time by 100%), the ED (100% increase in survival time) stood at 9.5 mg/kg.
